Key:
DIO1 mRNA in liver = experiment: Pharmacodynamics in PTU induced hypothyroidism SD rat model: liver DIO1 mRNA; assay type: in vivo; conditions: PTU induced hypothyroidism SD rats, mRNA at 24h; for Liver DIO1 Emax*: single dose, *Assumed Emax, T3 i.p. 0.12 mg/kg
Experimental: (§1) Thyroid hormones (THs) affect growth, metabolism, and the physiological function of nearly all organs. Biological activity arises from activation of nuclear hormone receptors (Thyroid hormone receptors, THRs), which in turn modulate the expression of numerous target genes. Therefore, the expression of target gene in liver and heart can be used to determine tissue selective THR activation. PTU induced hypothyroidism SD rats were treated with a single dose of THR agonists, mRNA levels for select THR-responsive genes in liver (DIO1) and heart tissue (α-MHC) were measured at 24h (FIG. 1), with ED50 and Emax shown in Table 27 below.
(§2) Male SD rats (˜180 g) were housed 3 per cage under standard vivarium conditions and were fed a normal chow diet for 5˜7 days of acclimation. […] PTU were administered via drinking water to a final concentration of 0.05% (0.05g/100 ml water) for all PTU groups for 18 days. At ˜[…] of day 17, the body weight of rats was recorded, and then animals were administered via intraperitoneal injection or gavage of compounds at indicated dosages. At 24h after compound dosing, rats will be euthanized by CO2 inhaling, and liver and heart were collected for gene expression analysis. RNA was extracted from each tissue and was used for first strand cDNA with iScript cDNA Synthesis reagents (Biorad, #1708891).

[1] = system: α-MHC mRNA in heart tissue; experiment: Pharmacodynamics in PTU induced hypothyroidism SD rat model: heart α-MHC mRNA; assay type: in vivo; conditions: high dose; PTU induced hypothyroidism SD rats, single dose, mRNA at 24h; *Assumed Emax
Experimental: as §1, §2

THR alpha-LBD = biological target: T1, THR alpha-LBD (Homo sapiens, UniProt P10827); experiment: THR-α Coactivator Peptide Recruitment Assay (LanthaScreen TR-FRET); assay type: biochemical; conditions: TR-FRET coactivator recruitment, THR alpha-LBD 0.25 nM; for EC50: read-out: THRα EC50
T1 construct: except that THR alpha-LBD of a final concentration 0.25 nM was used; purchased Invitrogen PV4687
Summary of the method: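 TR-FRET coactivator recruitment with THR alpha-LBD at 0.25 nM final, Fluorescein-SRC2-2 peptide 0.1 nM and Tb-labeled anti-GST antibody 2 nM; 2 h incubation at room temperature. 520/495 nm emission ratio fitted to a four-parameter sigmoidal curve to give EC50.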

THR beta-LBD = biological target: T2, THR beta-LBD (Homo sapiens, UniProt P10828); experiment: THR-β Coactivator Peptide Recruitment Assay (LanthaScreen TR-FRET); assay type: biochemical; conditions: TR-FRET coactivator recruitment, THR beta-LBD 0.5 nM; for EC50: read-out: THRβ EC50
T2 construct: THR beta-LBD (the final concentration is 0.5 nM) was added to the 384-well assay plate; purchased Invitrogen PV4686
T2 sequence (P10828 217-461 limits assumed): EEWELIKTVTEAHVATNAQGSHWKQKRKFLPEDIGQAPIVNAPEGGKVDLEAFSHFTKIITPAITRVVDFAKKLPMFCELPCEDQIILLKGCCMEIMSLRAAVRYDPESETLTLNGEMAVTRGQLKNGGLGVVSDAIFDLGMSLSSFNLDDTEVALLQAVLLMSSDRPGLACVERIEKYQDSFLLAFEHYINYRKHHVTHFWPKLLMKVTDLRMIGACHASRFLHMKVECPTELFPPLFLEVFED
Summary of the method: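 Agonist-driven coactivator recruitment read as a 520/495 nm TR-FRET emission ratio after 2 h at room temperature. Final concentrations: THR beta-LBD 0.5 nM, fluorescein-SRC2-2 peptide 0.1 nM, terbium anti-GST antibody 2 nM. EC50 from four-parameter dose-response fitting.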

T1 sequence (P10827 163-410 isoform P10827-2 limits assumed, other chains not shown): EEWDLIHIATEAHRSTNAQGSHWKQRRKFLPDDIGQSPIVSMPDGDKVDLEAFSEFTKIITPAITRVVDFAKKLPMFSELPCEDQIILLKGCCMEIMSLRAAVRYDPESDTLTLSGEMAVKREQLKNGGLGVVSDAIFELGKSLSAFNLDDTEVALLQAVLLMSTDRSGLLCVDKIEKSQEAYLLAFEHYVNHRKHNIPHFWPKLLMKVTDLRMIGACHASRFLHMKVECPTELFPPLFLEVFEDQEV

Row | SMILES | Liver DIO1 Emax* (DIO1 mRNA in liver) | ED50 (DIO1 mRNA in liver; Rattus norvegicus, po, single dose by gavage, read-out: Liver DIO1 absolute ED50) | Heart α-MHC Emax* [1] | THRα Emax (THR alpha-LBD) | EC50 (THR alpha-LBD) | THRβ Emax (THR beta-LBD) | EC50 (THR beta-LBD)
1 | O=c1[nH]c(=O)n(-c2cc(Cl)c(Oc3ccc(O)c(S(=O)(=O)N[C@H]4C[C@H](O)C4)c3)c(Cl)c2)nc1C(F)F [Compound 23, 5-(2,6-dichloro-4-(6-(difluoromethyl)-3,5-dioxo-4,5-dihydro-1,2,4-triazin-2 (3H)-yl)phenoxy)-2-hydroxy-N-((1r,3r)-3-hydroxycyclobutyl) benzene sulfonamide] | ≥80% | 5.4 mg/kg | <5% | A (85~110) | 2 to 200 nM | A (90~110) | < 2 nM
2 | CS(=O)(=O)Cc1cc(Oc2c(Cl)cc(-n3nc(C(F)F)c(=O)[nH]c3=O)cc2Cl)ncc1O [Compound 154, 2-[3,5-dichloro-4-[[5-hydroxy-4-(methylsulfonylmethyl)-2-pyridyl]oxy]phenyl]-6-(difluoromethyl)-1,2,4-triazine-3,5-dione] | – | – | – | B (40~85) | 200 to 1000 nM | B (75~90) | 2 to 20 nM
3 | O=c1[nH]c(=O)n(-c2cc(Cl)c(Cc3cc(S(=O)(=O)N[C@H]4C[C@H](O)C4)c(O)cn3)c(Cl)c2)nc1C(F)F [Compound 156, 2-(2,6-dichloro-4-(6-(difluoromethyl)-3,5-dioxo-4,5-dihydro-1,2,4-triazin-2 (3H)-yl)benzyl)-5-hydroxy-N-((1r,3r)-3-hydroxycyclobutyl)pyridine-4-sulfonamide] | – | – | – | B (40~85) | > 1000 nM | A (90~110) | 2 to 20 nM
4 | O=c1[nH]c(=O)n(-c2cc(Cl)c(Oc3cc(S(=O)(=O)NC4COC4)c(O)cn3)c(Cl)c2)nc1C(F)F [Compound 158, 2-(2,6-dichloro-4-(6-(difluoromethyl)-3,5-dioxo-4,5-dihydro-1,2,4-triazin-2(3H)-yl)phenoxy)-5-hydroxy-N-(oxetan-3-yl)pyridine-4-sulfonamide] | – | – | – | A (85~110) | 2 to 200 nM | A (90~110) | < 2 nM
5 | O=c1[nH]c(=O)n(-c2cc(Cl)c(Oc3cc(S(=O)(=O)NC45CCC(O)(C4)C5)c(O)cn3)c(Cl)c2)nc1C(F)F [Compound 159, 2-(2,6-dichloro-4-(6-(difluoromethyl)-3,5-dioxo-4,5-dihydro-1,2,4-triazin-2(3H)-yl)phenoxy)-5-hydroxy-N-(4-hydroxybicyclo[2.1.1]hexan-1-yl)pyridine-4-sulfonamide] | – | – | – | B (40~85) | 200 to 1000 nM | B (75~90) | 20 to 100 nM
6 | O=c1[nH]c(=O)n(-c2cc(Cl)c(Oc3cc(S(=O)(=O)NC45CCC(O)(CC4)C5)c(O)cn3)c(Cl)c2)nc1C(F)F [Compound 160, 2-(2,6-dichloro-4-(6-(difluoromethyl)-3,5-dioxo-4,5-dihydro-1,2,4-triazin-2(3H)-yl)phenoxy)-5-hydroxy-N-(4-hydroxybicyclo[2.2.1]heptan-1-yl)pyridine-4-sulfonamide] | – | – | – | B (40~85) | > 1000 nM | B (75~90) | 20 to 100 nM
7 | Cc1nn(-c2cc(Cl)c(Oc3cc(S(=O)(=O)N[C@H]4C[C@H](O)C4)c(O)cn3)c(Cl)c2)c(=O)[nH]c1=O [Compound 161, 2-(2,6-dichloro-4-(6-methyl-3,5-dioxo-4,5-dihydro-1,2,4-triazin-2(3H)-yl)phenoxy)-5-hydroxy-N-((1r,3r)-3-hydroxycyclobutyl)pyridine-4-sulfonamide] | – | – | – | B (40~85) | 200 to 1000 nM | B (75~90) | 20 to 100 nM
8 | Cc1nn(-c2cc(Cl)c(Oc3cc(S(=O)(=O)N[C@H]4C[C@@H](O)C4)c(O)cn3)c(Cl)c2)c(=O)[nH]c1=O [Compound 162, 2-(2,6-dichloro-4-(6-methyl-3,5-dioxo-4,5-dihydro-1,2,4-triazin-2(3H)-yl)phenoxy)-5-hydroxy-N-((1s,3s)-3-hydroxycyclobutyl)pyridine-4-sulfonamide] | – | – | – | C (<40) | > 1000 nM | B (75~90) | > 100 nM
9 | Cc1nn(-c2cc(Cl)c(Oc3cc(S(=O)(=O)N[C@@H]4CCOC4)c(O)cn3)c(Cl)c2)c(=O)[nH]c1=O [Compound 163, (R)-2-(2,6-dichloro-4-(6-methyl-3,5-dioxo-4,5-dihydro-1,2,4-triazin-2(3H)-yl)phenoxy)-5-hydroxy-N-(tetrahydrofuran-3-yl)pyridine-4-sulfonamide] | – | – | – | B (40~85) | 200 to 1000 nM | B (75~90) | 20 to 100 nM
10 | Cc1nn(-c2cc(Cl)c(Oc3cc(S(=O)(=O)N[C@H]4CCOC4)c(O)cn3)c(Cl)c2)c(=O)[nH]c1=O [Compound 164, (S)-2-(2,6-dichloro-4-(6-methyl-3,5-dioxo-4,5-dihydro-1,2,4-triazin-2(3H)-yl)phenoxy)-5-hydroxy-N-(tetrahydrofuran-3-yl)pyridine-4-sulfonamide] | – | – | – | B (40~85) | 200 to 1000 nM | B (75~90) | 20 to 100 nM
11 | O=c1cnn(-c2cc(Cl)c(Oc3cc(S(=O)(=O)N[C@H]4C[C@H](O)C4)c(O)cn3)c(Cl)c2)c(=O)[nH]1 [Compound 165, 2-(2,6-dichloro-4-(3,5-dioxo-4,5-dihydro-1,2,4-triazin-2(3H)-yl)phenoxy)-5-hydroxy-N-((1r,3r)-3-hydroxycyclobutyl)pyridine-4-sulfonamide] | – | – | – | B (40~85) | > 1000 nM | C (<75) | 20 to 100 nM
12 | Cc1cc(-n2nc(C(F)F)c(=O)[nH]c2=O)cc(C)c1Oc1cc(S(=O)(=O)N[C@H]2C[C@H](O)C2)c(O)cn1 [Compound 166, 2-[4-[6-(difluoromethyl)-3,5-dioxo-1,2,4-triazin-2-yl]-2,6-dimethyl-phenoxy]-5-hydroxy-N-(3-hydroxycyclobutyl)pyridine-4-sulfonamide] | – | – | – | B (40~85) | > 1000 nM | B (75~90) | > 100 nM
13 | Cc1cc(-n2nc(C(F)F)c(=O)[nH]c2=O)cc(Cl)c1Oc1cc(S(=O)(=O)N[C@H]2C[C@H](O)C2)c(O)cn1 [Compound 167, 2-[2-chloro-4-[6-(difluoromethyl)-3,5-dioxo-1,2,4-triazin-2-yl]-6-methyl-phenoxy]-5-hydroxy-N-(3-hydroxycyclobutyl)pyridine-4-sulfonamide] | – | – | – | A (85~110) | 200 to 1000 nM | A (90~110) | 2 to 20 nM
14 | C[C@]1(NS(=O)(=O)c2cc(Oc3c(Cl)cc(-n4nc(C(F)F)c(=O)[nH]c4=O)cc3Cl)ncc2O)C[C@H](O)C1 [Compound 168, 2-[2,6-dichloro-4-[6-(difluoromethyl)-3,5-dioxo-1,2,4-triazin-2-yl]phenoxy]-5-hydroxy-N-(3-hydroxy-1-methyl-cyclobutyl)pyridine-4-sulfonamide] | – | – | – | A (85~110) | 2 to 200 nM | A (90~110) | 2 to 20 nM
15 | CN1CC(NS(=O)(=O)c2cc(Oc3c(Cl)cc(-n4nc(C(F)F)c(=O)[nH]c4=O)cc3Cl)ncc2O)C1 [Compound 169, 2-(2,6-dichloro-4-(6-(difluoromethyl)-3,5-dioxo-4,5-dihydro-1,2,4-triazin-2(3H)-yl)phenoxy)-5-hydroxy-N-(1-methylazetidin-3-yl)pyridine-4-sulfonamide] | – | – | – | C (<40) | > 1000 nM | C (<75) | > 100 nM
16 | N[C@@H](Cc1cc(I)c(Oc2ccc(O)c(I)c2)c(I)c1)C(=O)O [Compound T3, reference compound] | 100% | – | – | – | – | – | –
